Test results reported in patent US20060140858A1, “Drug pre-targeting by means of bi-specific antibodies and hapten constructs comprising a carrier peptide and the active agent(s)” (Immunomedics, Inc., priority 2002, published 2006).
Like-named read-outs stand apart in the source and are kept apart here. Where a SMILES comes first, the peptide text is derived from it. Side-chain parts run from the residue outwards. The star is where a group is joined. DTPA = O=C(O)CN(CCN(CC(=O)O)CC(=O)O)CCN(CC(=O)O)CC(=O)*; X1 = NC(=S)NN=CC(=O)*

How the values were obtained:
[1] = Control group: 99m-Tc-IMP-192 alone; type: in vivo, nude mice; conditions: female, nude (Taconic NCRNU), mouse, total radioactivity
[2] = Clearance of 99m-Tc-IMP-192 in BALB/c mice; type: in vivo
[3] = Pretargeting: 125-I-hMN-14 × 734 bsAb, 24 h later 99m-Tc-IMP-192, biodistribution; type: in vivo, Nude mice; conditions: female, mouse, total radioactivity; for tissue uptake at 0.5 h: 30 min post peptide; for tissue uptake at 1 h: 1 h post peptide; for tissue uptake at 3 h: 3 h post peptide; for tissue uptake at 24 h: 24 h post peptide
[4] = target: Ac-Lys(DTPA)-Tyr-Lys(DTPA)-Lys(Tscg-Cys)-NH2 (IMP 192); experiment: in vivo, calculated from biodistribution in GW-39 tumor-bearing mice, 1 h after 99m-Tc-IMP-192, assuming one peptide per bsAb
[5] = target: Ac-Lys(DTPA)-Tyr-Lys(DTPA)-Lys(Tscg-Cys)-NH2 (IMP 192); experiment: in vivo, calculated from biodistribution in GW-39 tumor-bearing mice, 30 min after 99m-Tc-IMP-192, assuming one peptide per bsAb
[6] = target: carcinoembryonic antigen (CEA) (UniProt P06731); experiment: analytical size exclusion HPLC, radioiodinated bsAb with 10-20x molar excess of CEA
[7] = target: Ac-Lys(DTPA)-Tyr-Lys(DTPA)-Lys(Tscg-Cys)-NH2 (IMP 192); experiment: in vivo, calculated from biodistribution in GW-39 tumor-bearing mice, 3 h after 99m-Tc-IMP-192, assuming one peptide per bsAb
[8] = target: Ac-Lys(DTPA)-Tyr-Lys(DTPA)-Lys(Tscg-Cys)-NH2 (IMP 192); experiment: in vivo, calculated from biodistribution in GW-39 tumor-bearing mice, 24 h after 99m-Tc-IMP-192, assuming one peptide per bsAb
[9] = Cys Challenge 1 mM in 0.05 M phosphate pH 7.5 Room Temp., 1 hr
[10] = Saline Dilution Room Temp., 19 hr
[11] = Saline Dilution Room Temp., […]

Sequence of carcinoembryonic antigen (CEA) (P06731 35-685 limits assumed): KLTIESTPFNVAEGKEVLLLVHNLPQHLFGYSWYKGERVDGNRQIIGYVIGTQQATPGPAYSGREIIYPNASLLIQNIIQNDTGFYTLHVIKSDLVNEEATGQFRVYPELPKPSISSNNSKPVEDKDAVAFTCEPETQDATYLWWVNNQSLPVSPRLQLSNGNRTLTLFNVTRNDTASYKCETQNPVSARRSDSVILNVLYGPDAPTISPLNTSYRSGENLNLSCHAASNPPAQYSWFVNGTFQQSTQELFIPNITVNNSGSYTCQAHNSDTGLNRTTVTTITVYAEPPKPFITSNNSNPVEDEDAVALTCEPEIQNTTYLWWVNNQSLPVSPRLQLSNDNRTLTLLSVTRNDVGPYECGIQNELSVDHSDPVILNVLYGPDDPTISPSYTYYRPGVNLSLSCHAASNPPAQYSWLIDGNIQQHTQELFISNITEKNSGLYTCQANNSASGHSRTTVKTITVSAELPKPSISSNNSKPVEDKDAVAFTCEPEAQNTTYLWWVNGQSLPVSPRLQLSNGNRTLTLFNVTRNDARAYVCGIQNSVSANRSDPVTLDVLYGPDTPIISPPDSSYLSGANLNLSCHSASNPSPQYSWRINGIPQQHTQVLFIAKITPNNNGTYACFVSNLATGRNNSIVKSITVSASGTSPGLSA

CC(=O)N[C@@H](CCCCNC(=O)CN(CCN(CCN(CC(=O)O)CC(=O)O)CC(=O)O)CC(=O)O)C(=O)N[C@@H](Cc1ccc(O)cc1)C(=O)N[C@@H](CCCCNC(=O)CN(CCN(CCN(CC(=O)O)CC(=O)O)CC(=O)O)CC(=O)O)C(=O)N[C@@H](CCCCNC(=O)[C@H](CS)NC(=O)C=NNC(N)=S)C(N)=O [IMP 192, Ac-Lys(DTPA)-Tyr-Lys(DTPA)-Lys(Tscg-Cys)-NH2] (Ac-K(DTPA)YK(DTPA)K([Cys-X1])-NH2)
tissue uptake at 3 h ([1]; Kidney): 2.6 ± 0.9 %ID/g
tissue uptake at 3 h ([1]; Liver): 0.3 ± 0.07 %ID/g
tissue uptake at 3 h ([1]; Spleen): 0.1 ± 0.05 %ID/g
Origin (ITLC 24 hr Saturated NaCl) (Cys Challenge): 91.3% Origin
Solvent Front (ITLC 24 hr Saturated NaCl) (Cys Challenge): 7.4% Solvent
Peptide (HPLC) [9]: 98% Peptide
Void Vol (HPLC) [9]: 2% Void Vol
Peptide (HPLC) (Cys Challenge, 19.5 hr): 89% Peptide
Void Vol (HPLC) (Cys Challenge, 19.5 hr): 11% Void Vol
Origin (ITLC 24 hr Saturated NaCl) (Kit Room Temp.): 94% Origin
Solvent Front (ITLC 24 hr Saturated NaCl) (Kit Room Temp.): 5% Solvent Front
Peptide (HPLC) (Kit Room Temp., 3 hr): 99% Peptide
Void Vol (HPLC) (Kit Room Temp., 3 hr): 1% Void Vol
Peptide (HPLC) (Kit Room Temp., 21 hr): 95% Peptide
Void Vol (HPLC) (Kit Room Temp., 21 hr): 5% Void Vol
Peptide (HPLC) (Kit Room Temp., Initial Label): 99% Peptide
Void Vol (HPLC) (Kit Room Temp., Initial Label): 1% Void Vol
Origin (ITLC 24 hr Saturated NaCl) (Saline Dilution Room Temp.): 97% Origin
Solvent Front (ITLC 24 hr Saturated NaCl) (Saline Dilution Room Temp.): 2.3% Solvent
Peptide (HPLC) [10]: 96% Peptide
Void Vol (HPLC) [10]: 4% Void Vol
Peptide (HPLC) [11]: 99% Peptide
Void Vol (HPLC) [11]: 1% Void Vol
tissue uptake at 2 h ([2]; BALB/c, mouse, large intestine, total radioactivity, Lg.Int., 2 h): 1.53 ± 0.45 %ID/g
tissue uptake at 4 h ([2]; BALB/c, mouse, large intestine, total radioactivity, Lg.Int., 4 h): 1.58 ± 0.7 %ID/g
tissue uptake at 24 h ([2]; BALB/c, mouse, large intestine, total radioactivity, Lg.Int., 24 h): 0.15 ± 0.14 %ID/g
tissue uptake at 1 h ([2]; BALB/c, mouse, small intestine, total radioactivity, Small int, 1 h): 1.37 ± 0.75 %ID/g
tissue uptake at 2 h ([2]; BALB/c, mouse, small intestine, total radioactivity, Small int, 2 h): 0.6 ± 0.06 %ID/g
tissue uptake at 4 h ([2]; BALB/c, mouse, small intestine, total radioactivity, Small int, 4 h): 0.21 ± 0.09 %ID/g
tissue uptake at 24 h ([2]; BALB/c, mouse, small intestine, total radioactivity, Small int, 24 h): 0.03 ± 0.01 %ID/g
tissue uptake at 1 h ([2]; BALB/c, mouse, total radioactivity, Blood, 1 h): 0.3 ± 0.09 %ID/g
tissue uptake at 2 h ([2]; BALB/c, mouse, total radioactivity, Blood, 2 h): 0.21 ± 0.03 %ID/g
tissue uptake at 4 h ([2]; BALB/c, mouse, total radioactivity, Blood, 4 h): 0.14 ± 0.04 %ID/g
tissue uptake at 24 h ([2]; BALB/c, mouse, total radioactivity, Blood, 24 h): 0.05 ± 0.01 %ID/g
tissue uptake at 1 h ([2]; BALB/c, mouse, total radioactivity, Liver, 1 h): 0.27 ± 0.18 %ID/g
tissue uptake at 2 h ([2]; BALB/c, mouse, total radioactivity, Liver, 2 h): 0.22 ± 0.16 %ID/g
tissue uptake at 1 h ([2]; BALB/c, mouse, total radioactivity, Muscle, 1 h): 0.1 ± 0.06 %ID/g
tissue uptake at 2 h ([2]; BALB/c, mouse, total radioactivity, Muscle, 2 h): 0.05 %ID/g
tissue uptake at 4 h ([2]; BALB/c, mouse, total radioactivity, Muscle, 4 h): 0.03 ± 0.01 %ID/g
tissue uptake at 4 h ([2]; BALB/c, mouse, total radioactivity, Stomach, 4 h): 0.27 ± 0.33 %ID/g
tissue uptake at 24 h ([2]; BALB/c, mouse, total radioactivity, Stomach, 24 h): 0.02 ± 0.01 %ID/g
excreta dose per gram or mL at 1 h ([2]; BALB/c, mouse, total radioactivity, Urine, 1 h): 169 ± 95 %ID/g
excreta dose per gram or mL at 2 h ([2]; BALB/c, mouse, total radioactivity, Urine, 2 h): 57 ± 15 %ID/g
excreta dose per gram or mL at 4 h ([2]; BALB/c, mouse, total radioactivity, Urine, 4 h): 6.3 ± 4.53 %ID/g
excreta dose per gram or mL at 24 h ([2]; BALB/c, mouse, total radioactivity, Urine, 24 h): 0.2 ± 0.02 %ID/g
tissue uptake at 1 h ([2]; BALB/c, mouse, Kidney, 1 h): 4.16 ± 0.75 %ID/g
tissue uptake at 2 h ([2]; BALB/c, mouse, Kidney, 2 h): 4.05 ± 0.6 %ID/g
tissue uptake at 4 h ([2]; BALB/c, mouse, Kidney, 4 h): 3.21 ± 0.99 %ID/g
tissue uptake at 24 h ([2]; BALB/c, mouse, Kidney, 24 h): 1.21 ± 0.08 %ID/g
tissue uptake at 4 h ([2]; BALB/c, mouse, Liver, 4 h): 0.09 ± 0.02 %ID/g
tissue uptake at 24 h ([2]; BALB/c, mouse, Liver, 24 h): 0.04 %ID/g
tissue uptake at 1 h ([2]; BALB/c, mouse, Lungs, 1 h): 0.5 ± 0.23 %ID/g
tissue uptake at 2 h ([2]; BALB/c, mouse, Lungs, 2 h): 0.29 ± 0.08 %ID/g
tissue uptake at 4 h ([2]; BALB/c, mouse, Lungs, 4 h): 0.19 ± 0.04 %ID/g
tissue uptake at 24 h ([2]; BALB/c, mouse, Lungs, 24 h): 0.05 %ID/g
tissue uptake at 1 h ([2]; BALB/c, mouse, Spleen, 1 h): 0.08 ± 0.01 %ID/g
tissue uptake at 2 h ([2]; BALB/c, mouse, Spleen, 2 h): 0.09 ± 0.3 %ID/g
tissue uptake at 4 h ([2]; BALB/c, mouse, Spleen, 4 h): 0.05 ± 0.02 %ID/g
tissue uptake at 24 h ([2]; BALB/c, mouse, Spleen, 24 h): 0.03 ± 0.01 %ID/g
% ID/g ([2]; Muscle, 24 h): 0.00 ± 0.0 % ID/g
in vivo stability (activity excreted in urine, SE-HPLC with antibody) ([2]; urine from a mouse in a pretargeting experiment): appears to be the intact peptide
tissue uptake at 0.5 h ([3]; NCRNU nude, Kidney): 9.9 ± 6.1 %ID/g
tissue uptake at 0.5 h ([3]; NCRNU nude, Liver): 1.4 ± 0.3 %ID/g
tissue uptake at 1 h ([3]; NCRNU nude, Liver): 0.9 ± 0.2 %ID/g
tissue uptake at 3 h ([3]; NCRNU nude, Liver): 0.6 ± 0.1 %ID/g
tissue uptake at 0.5 h ([3]; NCRNU nude, Spleen): 1.2 ± 0.4 %ID/g
tissue uptake at 1 h ([3]; NCRNU nude, Spleen): 0.8 ± 0.2 %ID/g
tissue uptake at 3 h ([3]; NCRNU nude, Spleen): 0.5 ± 0.1 %ID/g
tissue uptake at 0.5 h ([3]; NCRNU nude, Tumor): 11.4 ± 4.8 %ID/g
tissue uptake at 1 h ([3]; NCRNU nude, Tumor): 14.3 ± 3.6 %ID/g
tissue uptake at 3 h ([3]; NCRNU nude, Tumor): 12.6 ± 5.2 %ID/g
tissue uptake at 24 h ([3]; NCRNU nude, Tumor): 8.7 ± 3.3 %ID/g
tissue uptake at 0.5 h ([3]; nude (Taconic NCRNU), Blood): 4.3 ± 1.2 %ID/g
tissue uptake at 1 h ([3]; nude (Taconic NCRNU), Blood): 3.5 ± 0.9 %ID/g
tissue uptake at 3 h ([3]; nude (Taconic NCRNU), Blood): 1.7 ± 0.4 %ID/g
tissue uptake at 24 h ([3]; nude (Taconic NCRNU), Blood): 0.6 ± 0.2 %ID/g
tissue uptake at 1 h ([3]; nude (Taconic NCRNU), Kidney): 4.6 ± 0.7 %ID/g
tissue uptake at 3 h ([3]; nude (Taconic NCRNU), Kidney): 2.4 ± 0.5 %ID/g
tissue uptake at 24 h ([3]; nude (Taconic NCRNU), Kidney): 1.2 ± 0.3 %ID/g
tissue uptake at 0.5 h ([3]; nude (Taconic NCRNU), Lungs): 4.2 ± 3.4 %ID/g
tissue uptake at 1 h ([3]; nude (Taconic NCRNU), Lungs): 3.6 ± 1.9 %ID/g
tissue uptake at 3 h ([3]; nude (Taconic NCRNU), Lungs): 1 ± 0.3 %ID/g
tissue uptake at 24 h ([3]; nude (Taconic NCRNU), Lungs): 0.3 ± 0.1 %ID/g

hMN-14 × 734 (Fab × Fab) bi-specific antibody (bispecific antibody)
% saturation of the available DTPA binding sites on the tumor bound bsAb [4]: 25.8%
% saturation of the available DTPA binding sites on the tumor bound bsAb [5]: 25.4%
percent bound [6]: 90%
% saturation of the available DTPA binding sites on the tumor bound bsAb [7]: 25%
% saturation of the available DTPA binding sites on the tumor bound bsAb [8]: 28%
